Results published in US12414560B2, “Pesticidal compositions and related methods” (CJB Applied Technologies LLC, priority 2017, dated 2025).
“And” between values parts separate entries of the source, which are not always exact repeats. Identical values can stand only once.

Assays:
[1] = tested on: resistant strain of Didymella sp. (gummy stem rot); assay: Petri dish test (zone of inhibition), radial growth, resistant strain of Didymella sp.; format: cell-based
Procedure: (§1) Petri dish tests (i.e., zone of inhibition tests) were conducted to compare the efficacy of azoxystrobin against both sensitive/susceptible and resistant strains of Didymella sp. (gummy stem rot).
Petri dish tests (i.e., zone of inhibition tests) were conducted to compare four rates of three adjuvant compositions (ADJ1, AJD2, and ADJ3 (N-methylpyrrolidone)) on sensitive and resistant strains of Didymella at a fixed treatment rate with a FRAC Group 11 fungicide, azoxystrobin.
Petri dish tests (i.e., zone of inhibition tests) were conducted to compare the efficacy of azoxystrobin (a strobilurin, quinone outside inhibitor (QOI), and member of Fungicide Resistance Action Committee (FRAC) Group 11) against resistant strains of Didymella sp. (gummy stem rot). Various organic solvents (adjuvants) were utilized at varying rates (6 fluid ounces/acre or 3 ounces/acre).

[2] = tested on: sensitive/susceptible strain of Didymella sp. (gummy stem rot); assay: Petri dish test (zone of inhibition), radial growth, sensitive/susceptible strain of Didymella sp.; format: cell-based; details: for radial growth, 18 hours / radial growth, 24 hours / radial growth, 36 hours / radial growth, 48 hours / radial growth, 12 hours: sensitive strain
Procedure: as §1
Petri dish tests (i.e., zone of inhibition tests) were conducted to compare four rates of three adjuvant compositions (ADJ1, AJD2, and ADJ3 (N-methylpyrrolidone)) on sensitive and resistant strains of Didymella at a fixed treatment rate with a FRAC Group 11 fungicide, azoxystrobin. […]

[3] = tested on: natural strains of Didymella; assay: Watermelon Didymella (Gummy Stem Rot) field test, natural infection, disease severity rating; format: in vivo, Didymella on watermelon plants
Procedure: Watermelon plants were grown in normal field conditions subject to infection by natural strains of Didymella. The watermelons where then treated with: (a) a FRAC Group 11 fungicide, azoxystrobin alone; (b) ADJ1 alone; (c) azoxystrobin plus ADJ2; (d) azoxystrobin plus a typical commercial adjuvant (commercially available as Ad-Spray™); and (e) azoxystrobin plus chlorothalonil and commercial adjuvant. Disease severity ratings were taken and illustrated improved disease control of natural strains with ADJ1 compared to treatment with azoxystrobin alone or azoxystrobin plus commercial adjuvant, and equivalent control to azoxystrobin plus chlorothalonil and commercial adjuvant.

[4] = tested on: Morning Glory (MG); assay: Herbicide burndown testing, Morning Glory; details: in vivo; further: test concentration or dose not given here
Procedure: (§2) Burndown (BD) testing was conducted on Morning Glory (MG), Goosegrass (GG), Florida Beggarweed (FB) with an herbicide, Gramoxone® (paraquat—N,N′-dimethyl-4,4′-bipyridinium dichloride). Various amounts of Crop Oil Concentrate™ (COC) and an organic solvent adjuvant, Benzyl Acetate (BA), were utilized in conjunction with the herbicide. Crop Oil Concentrate™ (COC) is commonly used to enhance the deposition and spreading of herbicides on the leaf surface. The Crop Oil Concentrate™ (COC) included paraffinic petroleum oil, tall oil fatty acids and alkylphenol ethoxylates. The results are summarized in Table 20 and show a substantial increase in burndown rate when the organic solvent adjuvant is combined with an herbicide. The results also show a substantial increase in burndown rate compared to the combination of herbicide and Crop Oil Concentrate™ (COC).

[5] = tested on: Goosegrass (GG); assay: Herbicide burndown testing, Goosegrass; details: in vivo; further: test concentration or dose not given here
Procedure: as §2

[6] = tested on: resistant strains of Rhizoctonia solani (brown patch, stem rot, and/or root rot); assay: Petri dish test (zone of inhibition), resistant strains of Rhizoctonia solani; format: cell-based; details: organic solvent composition (where used) 6 fluid ounces/acre; for % Reduction in Radial Growth: 48 hours, vs untreated
Procedure: Petri dish tests (i.e., zone of inhibition tests) were conducted to compare the efficacy of tebuconazole (demethylation inhibitor, […], a triazole, and member of Fungicide Resistance Action Committee (FRAC) Group 3) against resistant strains of Rhizoctonia solani (brown patch, stem rot, and/or root rot). Various organic solvents (adjuvants) were utilized at 6 fluid ounces/acre and compared with just the active ingredient alone. The results are summarized in Table 19 and show the organic solvents provide a substantial resistant strain growth reduction compared to a FRAC Group 3 active ingredient utilized alone.

[7] = tested on: azoxystrobin resistant strain of Didymella; assay: Watermelon Didamella (Gummy Stem Rot) field test, inoculated plants, disease severity rating; format: in vivo, Didymella on watermelon plants; design: key: based on counts of active fungal infection sites on leaves; details: adjuvant rate 6 fl oz/acre
Procedure: Watermelon plants were inoculated with an azoxystrobin resistant strain of Didymella. The watermelon plants were then treated with: (a) a FRAC Group 11 fungicide, azoxystrobin alone; (b) azoxystrobin plus ADJ1; (c) azoxystrobin plus ADJ2; (d) azoxystrobin plus a typical commercial adjuvant (commercially available as Ad-Spray™); and (e) azoxystrobin plus chlorothalonil and commercial adjuvant (commercially available as Ad-Spray™). Disease severity ratings were taken and illustrated improved disease control of resistant strain with ADJ1 and ADJ2 compared to treatment with azoxystrobin alone, azoxystrobin plus commercial adjuvant, and azoxystrobin plus chlorothalonil and commercial adjuvant, especially at lower rates of azoxystrobin. Severity rating were based on multiple counts of active fungal infection sites on the leaves of the plants.

[8] = tested on: natural strains of Cercospora (known to be resistant to azoxystrobin); assay: Soybean Cercospora (Frog Eye Leaf Spot) field test, severity ratings; format: in vivo, Cercospora on soybean plants; details: azoxystrobin 0.5×
Procedure: Soybean plants were grown in normal field conditions subject to infection by natural strains of Cercospora (known to be resistant to azoxystrobin) then treated with: (a) a FRAC Group 11 fungicide, azoxystrobin alone; (b) azoxystrobin plus ADJ1; (c) azoxystrobin plus ADJ2; (d) azoxystrobin plus a typical commercial adjuvant (commercially available as Preference®). Disease severity ratings were taken and illustrated improved disease control with ADJ1 and ADJ2 compared to treatment with azoxystrobin alone or azoxystrobin plus commercial adjuvant. Duncan Multiple Range treatment of the data (indicated by “a,” “b,” “c,”, etc.) confirmed statistically valid different between the treatment results.

[9] = ADJ1 0.25× (adjuvant rate 4 fl oz/acre), Quadris 0
[10] = adjuvant 4 fl oz/acre (ADJ1 0.5×), Quadris 0
[11] = adjuvant 6 fl oz/acre ([…]), Quadris 0
[12] = adjuvant 8 fl oz/acre (1×), Quadris 0
[13] = azoxystrobin 0, additive alone (additive rate 0)
[14] = adjuvant 2 fl oz/acre (0.25×), Quadris 0
[15] = adjuvant 4 fl oz/acre (0.5×), Quadris 0
[16] = adjuvant 8 fl oz/acre (ADJ1 1×), Quadris 0
[17] = azoxystrobin 0, adjuvant only 6 fl oz/acre
[18] = azoxystrobin 5.5 fl oz/acre, no additive
[19] = azoxystrobin 11 fl oz/acre, no additive
[20] = azoxystrobin 16 fl oz/acre, no additive
[21] = azoxystrobin 22 fl oz/acre, no additive
[22] = azoxystrobin application rate 5.5
[23] = azoxystrobin application rate 11
[24] = azoxystrobin application rate 22
[25] = azoxystrobin 5.5 fl oz/acre, adjuvant rate 6 fl oz/acre
[26] = azoxystrobin 11 fl oz/acre, adjuvant rate 6 fl oz/acre

For `CC(=O)OCc1ccccc1` [ADJ1, benzyl acetate], the “radial growth, 18 hours” value [1, 9] was 20.6 cm, the “radial growth, 24 hours” value [1, 9] was 30.2 cm and the “radial growth, 48 hours” value [1, 9] was 51.2 cm. For the same compound, the “radial growth, 18 hours” value [1, 10] was 22.6 cm, the “radial growth, 24 hours” value [1, 10] was 28.5 cm and the “radial growth, 48 hours” value [1, 10] was 53.9 cm. The “radial growth, 18 hours” value [1, 11] was 18.9 cm, the “radial growth, 24 hours” value [1, 11] was 23.4 cm and the “radial growth, 48 hours” value [1, 11] was 45.9 cm. For the same compound, the “radial growth, 18 hours” value [1, 12] was 16.7 cm, the “radial growth, 24 hours” value [1, 12] was 10.9 cm and the “radial growth, 48 hours” value [1, 12] was 44.4 cm. The “radial growth, 12 hours” value [1, 13] was 25 cm, the “radial growth, 24 hours” value [1, 13] was 30 cm and the “growth reduction, in words” value ([1]; text of Example 2) was “some efficacy but not at a commercial level control”. The “radial growth, 18 hours” value [2, 14] was 19.9 cm, the “radial growth, 24 hours” value [2, 14] was 24.9 cm and the “radial growth, 36 hours” value [2, 14] was 39.3 cm. The “radial growth, 48 hours” value [2, 14] was 47.9 cm, the “radial growth, 18 hours” value [2, 15] was 17 cm and the “radial growth, 24 hours” value [2, 15] was 23.7 cm. The “radial growth, 36 hours” value [2, 15] was 32.3 cm, the “radial growth, 48 hours” value [2, 15] was 46 cm and the “radial growth, 18 hours” value [2, 11] was 15.7 cm. For the same compound, the “radial growth, 24 hours” value [2, 11] was 26.1 cm, the “radial growth, 36 hours” value [2, 11] was 38.8 cm and the “radial growth, 48 hours” value [2, 11] was 48.1 cm. For the same compound, the “radial growth, 18 hours” value [2, 16] was 15.7 cm, the “radial growth, 24 hours” value [2, 16] was 21.3 cm and the “radial growth, 36 hours” value [2, 16] was 40.6 cm. For the same compound, the “radial growth, 48 hours” value [2, 16] was 50.1 cm, the “radial growth, 12 hours” value [2, 13] was 24 cm and the “radial growth, 24 hours” value [2, 13] was 41.1 cm. For the same compound, the “radial growth, 36 hours” value [2, 13] was 54 cm, the “control compared to azoxystrobin alone, in words” value ([2]; susceptible strain, equivalent of 2 oz/acre of ADJ1) was “comparable control” and the “disease reduction, in words” value ([3]; ADJ1 only) was “Some disease reduction”. The “disease severity, Fourth Week Rating” value [3, 17] was 48.7, the “disease severity, One Week Rating” value [3, 17] was 1.1 and the “disease severity, Third Week Rating” value [3, 17] was 38.9. For the same compound, the “disease severity, Two Week Rating” value [3, 17] was 8.
For `CN1CCCC1=O` [ADJ3, N-methylpyrrolidone], the “radial growth, 12 hours” value [1, 13] was 27 cm, the “radial growth, 24 hours” value [1, 13] was 39 cm and the “radial growth, 12 hours” value [2, 13] was 22.8 cm. The “radial growth, 24 hours” value [2, 13] was 41 cm and the “radial growth, 36 hours” value [2, 13] was 54.1 cm.
For `C[n+]1ccc(-c2cc[n+](C)cc2)cc1` [Paraquat], the “BD (MG) (%)” value [4] was 51% and 50% and 81% and the “BD (GG) (%)” value [5] was 72% and 60% and 100%.
For `CC(C)(C)C(O)(CCc1ccc(Cl)cc1)Cn1cncn1` (stereo not shown) [Tebuconazole], the “Radial growth (cm) at 48 hours” value ([6]; Tebuconazole 2 oz/acre) was 10.72 cm, the “% Reduction in Radial Growth” value ([6]; Tebuconazole 2 oz/acre) was 32% and the “Radial growth (cm) at 48 hours” value ([6]; Tebuconazole 4 oz/acre) was 7.8 cm. The “% Reduction in Radial Growth” value ([6]; Tebuconazole 4 oz/acre) was 50%.
In the case of `CO/C=C(/C(=O)OC)c1ccccc1Oc1cc(Oc2ccccc2C#N)ncn1` [azoxystrobin], the “radial growth, 12 hours” value [1, 18] is reported as 31 cm, the “radial growth, 24 hours” value [1, 18] is reported as 48 cm and the “radial growth, 12 hours” value [1, 19] is reported as 30 cm. The “radial growth, 24 hours” value [1, 19] was 48 cm, the “radial growth, 12 hours” value [1, 20] was 29 cm and the “radial growth, 24 hours” value [1, 20] was 47 cm. The “radial growth, 12 hours” value [1, 21] was 22 cm, the “radial growth, 24 hours” value [1, 21] was 28 cm and the “radial growth, 12 hours” value [2, 18] was 15.3 cm. For the same compound, the “radial growth, 24 hours” value [2, 18] was 24.9 cm, the “radial growth, 36 hours” value [2, 18] was 34.3 cm and the “radial growth, 12 hours” value [2, 19] was 12.5 cm. The “radial growth, 24 hours” value [2, 19] was 16.9 cm, the “radial growth, 36 hours” value [2, 19] was 23.6 cm and the “radial growth, 12 hours” value [2, 20] was 13.4 cm. For the same compound, the “radial growth, 24 hours” value [2, 20] was 20 cm, the “radial growth, 36 hours” value [2, 20] was 28 cm and the “radial growth, 12 hours” value [2, 21] was 15.8 cm. The “radial growth, 24 hours” value [2, 21] was 22.9 cm, the “radial growth, 36 hours” value [2, 21] was 31.9 cm and the “disease severity, Fourth Week Rating” value [7, 22] was 82.8. The “disease severity, One Week Rating” value [7, 22] was 9.2, the “disease severity, Third Week Rating” value [7, 22] was 63.3 and the “disease severity, Two Week Rating” value [7, 22] was 16.9. For the same compound, the “disease severity, Fourth Week Rating” value [7, 23] was 65.7, the “disease severity, One Week Rating” value [7, 23] was 13.3 and the “disease severity, Third Week Rating” value [7, 23] was 42. The “disease severity, Two Week Rating” value [7, 23] was 16.7, the “disease severity, Fourth Week Rating” value [7, 24] was 16.3 and the “disease severity, One Week Rating” value [7, 24] was 1.1. For the same compound, the “disease severity, Third Week Rating” value [7, 24] was 4.8, the “disease severity, Two Week Rating” value [7, 24] was 0.2 and the “disease severity, Fourth Week Rating” value [3, 25] was 80.8. The “disease severity, One Week Rating” value [3, 25] was 2.1, the “disease severity, Third Week Rating” value [3, 25] was 59.4 and the “disease severity, Two Week Rating” value [3, 25] was 6.6. For the same compound, the “disease severity, Fourth Week Rating” value [3, 26] was 76.8, the “disease severity, One Week Rating” value [3, 26] was 1.1 and the “disease severity, Third Week Rating” value [3, 26] was 49.5. The “disease severity, Two Week Rating” value [3, 26] was 0, the “Severity Ratings, August 31/Upper leaf” value [8] was 10.3 and the “Severity Ratings, September 7/bottom leaf” value [8] was 35.5. The “Severity Ratings, September 7/higher Leaf” value [8] was 16.3, the “Severity Ratings, September 7/middle leaf” value [8] was 3.2 and the “Severity Ratings, September 13/bottom leaf” value [8] was 18. For the same compound, the “Severity Ratings, September 20/higher leaf” value [8] was 11.3.
